pIC50: −log10 of the molar value.
Key:
Assay type in all cases: cell-based
Lovo cells (G13D) = experiment: Cell viability assay (CellTiter-Glo), Lovo cells; details: Homo sapiens, 72 h; Lovo cells, 3 days incubation, CellTiter-Glo luminescence; read-out: Inhibition of Cancerous Cells IC50 Lovo (G13D)
Description: (§1) H358, H23, SW48, and AsPC-1 cells were cultured in RPMI 1640 media supplemented with 10% fetal bovine serum, streptomycin, and penicillin. Lovo and SW480 cells were cultured in DMEM media supplemented with 10% fetal bovine serum, streptomycin, and penicillin. The cell lines were plated in their respective medium supplemented with 2.5% fetal bovine serum, streptomycin, and penicillin. All cell lines were plated in white walled 96-well plates at 2,000 cells/well or 384-well plates at 500 cells/well, except Lovo, which were plated at 4,000 or 1,000 cells/well, respectively. The cells were incubated in DMSO (control) or a compound for 3 days at 37° C. under 5% CO2. A CELLTITER-GLO® reagent (100 μL) was then added to each well. After a 10 min incubation with shaking, luminescence was measured using an ENVISION® multimode plate reader.

SW480 cells (G12V) = experiment: Cell viability assay (CellTiter-Glo), SW480 cells; details: Homo sapiens, 72 h; SW480 cells, 3 days incubation, CellTiter-Glo luminescence; read-out: Inhibition of Cancerous Cells IC50 SW480 (G12V)
Description: as §1

SW48 cells (wt) = experiment: Cell viability assay (CellTiter-Glo), SW48 cells; details: Homo sapiens, 72 h; SW48 cells, 3 days incubation, CellTiter-Glo luminescence; read-out: Inhibition of Cancerous Cells IC50 SW48 (wt)
Description: as §1

H358 cells (G12C) = experiment: Cell viability assay (CellTiter-Glo), H358 cells; details: Homo sapiens, NCI-H358, 72 h; H358 cells, 3 days incubation, CellTiter-Glo luminescence; read-out: Inhibition of Cancerous Cells IC50 H358 (G12C)
Description: as §1

SMILES | pIC50 (Lovo cells (G13D)) | pIC50 (SW480 cells (G12V)) | pIC50 (SW48 cells (wt)) | pIC50 (H358 cells (G12C))
COc1cc2c(N[C@H](C)c3cccc(Br)c3)nc(C)nc2cc1OCCCCCCCC(=O)NCc1cccc2c1CN(C1CCC(=O)NC1=O)C2=O (stereo partly drawn) [Compound A7, 8-((4-(((R)-1-(3-Bromophenyl)ethyl)amino)-6-methoxy-2-methylquinazolin-7-yl)oxy)-N-((2-(2,6-dioxopiperidin-3-yl)-1-oxoisoindolin-4-yl)methyl)octanamide] | 5.46 | 5.19 | 5.30 | 5.27
COc1cc2c(N[C@H](C)c3cccc(C(F)(F)CO)c3)nc(C)nc2cc1OCCCCCCCN1CCC(c2cc3c(cc2F)C(=O)N(C2CCC(=O)NC2=O)C3)CC1 (stereo partly drawn) [Compound A27, 3-(5-(1-(7-((4-(((R)-1-(3-(1,1-Difluoro-2-hydroxyethyl)phenyl)ethyl)amino)-6-methoxy-2-methylquinazolin-7-yl)oxy)heptyl)piperidin-4-yl)-6-fluoro-1-oxoisoindolin-2-yl)-piperidine-2,6-dione] | 6.24 | 6.23 | 6.03 | 6.00
COc1cc2c(N[C@H](C)c3cccc(Br)c3)nc(C)nc2cc1OCCCCCN1CCN(C(=O)COc2cc(F)cc3c2CN(C2CCC(=O)NC2=O)C3=O)CC1 (stereo partly drawn) [Compound A14, 3-(4-(2-(4-(5-((4-(((R)-1-(3-Bromophenyl)ethyl)amino)-6-methoxy-2-methyl-quinazolin-7-yl)oxy)pentyl)piperazin-1-yl)-2-oxoethoxy)-6-fluoro-1-oxoisoindolin-2-yl)-piperidine-2,6-dione] | 5.55 | 5.30 | 5.51 | 5.35
COc1cc2c(N[C@H](C)c3cccc(Br)c3)nc(C)nc2cc1OCCCCCCCCCCC(=O)N1CCC(CN2CCN(c3cc4c(cc3F)C(=O)N(C3CCC(=O)NC3=O)C4=O)CC2)CC1 (stereo partly drawn) [Compound A35, 5-(4-((1-(11-((4-(((R)-1-(3-Bromophenyl)ethyl)amino)-6-methoxy-2-methyl-quinazolin-7-yl)oxy)undecanoyl)piperidin-4-yl)methyl)piperazin-1-yl)-2-(2,6-dioxopiperidin-3-yl)-6-fluoroisoindoline-1,3-dione] | 6.27 | 5.60 | 5.39 | < 5.00
COc1cc2c(N[C@H](C)c3cccc(Br)c3)nc(C)nc2cc1OCCCCCCCCN1CCC(c2cc(F)cc3c2CN(C2CCC(=O)NC2=O)C3=O)CC1 (stereo partly drawn) [Compound A58, 3-(4-(1-(8-((4-(((R)-1-(3-Bromophenyl)ethyl)amino)-6-methoxy-2-methyl-quinazolin-7-yl)oxy)octyl)piperidin-4-yl)-6-fluoro-1-oxoisoindolin-2-yl)piperidine-2,6-dione] | 6.52 | 6.44 | 6.38 | 5.92
COc1ccc(C2=N[C@@H](c3ccc(Cl)cc3)[C@@H](c3ccc(Cl)cc3)N2C(=O)N2CCN(CC(=O)NCCCCCCOc3cc4nc(C)nc(N[C@H](C)c5cccc(Br)c5)c4cc3OC)C(=O)C2)c(OC(C)C)c1 [Compound C1, 2-(4-((4S,5R)-4,5-Bis(4-chlorophenyl)-2-(2-isopropoxy-4-methoxyphenyl)-4,5-dihydro-1H-imidazole-1-carbonyl)-2-oxopiperazin-1-yl)-N-(6-((4-(((R)-1-(3-bromophenyl)-ethyl)amino)-6-methoxy-2-methylquinazolin-7-yl)oxy)hexyl)acetamide] | < 5.00 | < 5.00 | < 5.00 | < 5.00
COc1cc2c(N[C@H](C)c3cccc(Br)c3)nc(C)nc2cc1OCCCCCCCCCOc1cc(-c2scnc2C)ccc1CNC(=O)[C@@H]1C[C@@H](O)CN1C(=O)[C@@H](NC(C)=O)C(C)(C)C [Compound D12, (2S,4R)-1-((S)-2-acetamido-3,3-dimethylbutanoyl)-N-(2-((9-((4-(((R)-1-(3-bromophenyl)ethyl)amino)-6-methoxy-2-methylquinazolin-7-yl)oxy)nonyl)oxy)-4-(4-methylthiazol-5-yl)benzyl)-4-hydroxypyrrolidine-2-carboxamide] | 5.51 | 5.46 | 5.27 | 5.37
COc1cc2c(N[C@H](C)c3cccc(Br)c3)nc(C)nc2c(CCCCCCCN2CCC(c3cc(F)cc4c3CN(C3CCC(=O)NC3=O)C4=O)CC2)c1OC (stereo partly drawn) [Compound A20, 3-(4-(1-(7-(4-(((R)-1-(3-Bromophenyl)ethyl)amino)-6,7-dimethoxy-2-methyl-quinazolin-8-yl)heptyl)piperidin-4-yl)-6-fluoro-1-oxoisoindolin-2-yl)piperidine-2,6-dione] | 6.02 | 5.92 | 6.09 | 6.08
COc1cc2c(N[C@H](C)c3cccc(Br)c3)nc(C)nc2cc1C1CCN(CCCCCN2CCC(c3cc(F)cc4c3CN(C3CCC(=O)NC3=O)C4=O)CC2)CC1 (stereo partly drawn) [Compound A17, 3-(4-(1-(5-(4-(4-(((R)-1-(3-Bromophenyl)ethyl)amino)-6-methoxy-2-methyl-quinazolin-7-yl)piperidin-1-yl)pentyl)piperidin-4-yl)-6-fluoro-1-oxoisoindolin-2-yl)piperidine-2,6-dione] | 6.12 | 6.02 | 5.96 | 5.85
CNCc1ccccc1-c1csc([C@H](C)Nc2nc(C)nc3cc(OCCCCCCCN4CCC(c5cc(F)cc6c5CN(C5CCC(=O)NC5=O)C6=O)CC4)c(OC)cc23)c1 (stereo partly drawn) [Compound A16, 3-(6-Fluoro-4-(1-(7-((6-methoxy-2-methyl-4-(((S)-1-(4-(2-((methylamino)-methyl)phenyl)thiophen-2-yl)ethyl)amino)quinazolin-7-yl)oxy)heptyl)piperidin-4-yl)-1-oxoisoindolin-2-yl)piperidine-2,6-dione] | 6.64 | 6.46 | 6.47 | 6.37
COc1cc2c(N[C@H](C)c3cccc(Br)c3)nc(C)nc2cc1OCCCCCCCCC(=O)NCc1cccc2c1CN(C1CCC(=O)NC1=O)C2=O (stereo partly drawn) [Compound A6, 9-((4-(((R)-1-(3-bromophenyl)ethyl)amino)-6-methoxy-2-methylquinazolin-7-yl)oxy)-N-((2-(2,6-dioxopiperidin-3-yl)-1-oxoisoindolin-4-yl)methyl)nonanamide] | 5.31 | 5.08 | < 5.00 | 5.00
COc1cc2c(N[C@H](C)c3cccc(Br)c3)nc(C)nc2cc1OCCCCCN1CCN(C(=O)COc2cc3c(cc2F)C(=O)N(C2CCC(=O)NC2=O)C3)CC1 (stereo partly drawn) [Compound A31, 3-(5-(2-(4-(5-((4-(((R)-1-(3-Bromophenyl)ethyl)amino)-6-methoxy-2-methyl-quinazolin-7-yl)oxy)pentyl)piperazin-1-yl)-2-oxoethoxy)-6-fluoro-1-oxoisoindolin-2-yl)-piperidine-2,6-dione] | 6.64 | 5.31 | 6.29 | 5.35
COc1cc2c(N[C@H](C)c3cccc(Br)c3)nc(C)nc2cc1OCCCCCN1CCC(c2cc(F)cc3c2CN(C2CCC(=O)NC2=O)C3=O)CC1 (stereo partly drawn) [Compound A11, 3-(4-(1-(5-((4-(((R)-1-(3-Bromophenyl)ethyl)amino)-6-methoxy-2-methyl-quinazolin-7-yl)oxy)pentyl)piperidin-4-yl)-6-fluoro-1-oxoisoindolin-2-yl)piperidine-2,6-dione] | 6.39 | 6.25 | 6.29 | 5.80
